Experimental findings from patent publication US8198269B2, “Fused aminodihydrothiazine derivative” (Eisai R&D Management Co., Ltd., priority 2008, dated 2012) are described below.

The assay relates to Aβ42 production. The experiment in a line: Quantification of Aβ peptide in culture of neurons from rat fetus brain (Aβ ELISA). The format is cell-based. The settings on record: Neuron, 72 h; rat primary neuronal culture (embryonic day 18 Wistar rat cerebral cortex); cultured three days after addition of compound; Aβ42 concentration in the medium by ELISA; read-out: Aβ42 production reducing effect IC50. Here is the method:
Quantification of Aβ Peptide in Culture of Neurons from Rat Fetus Brain
(1) Rat Primary Neuronal Culture
Primary neuronal cultures were prepared from the cerebral cortex of embryonic day 18 Wistar rats (Charles River Japan, Yokohama, Japan). Specifically, the embryos were aseptically removed from pregnant rats under ether anesthesia. The brain was isolated from the embryo and immersed in an ice-cold L-15 medium (such as Invitrogen Corp. Cat #11415-064, Carlsbad, Calif., USA, or SIGMA L1518). The cerebral cortex was collected from the isolated brain under a stereoscopic microscope. The cerebral cortex fragments collected were enzymatically treated in an enzyme solution containing 0.25% trypsin (Invitrogen Corp. Cat #15050-065, Carlsbad, Calif., USA) and 0.01% DNase (Sigma D5025, St. Louis, Mo., USA) at 37° C. for 30 minutes to disperse the cells. Here, the enzymatic reaction was stopped by adding inactivated horse serum to the solution. The enzymatically treated solution was centrifuged at 1,500 rpm for five minutes to remove the supernatant. 5 to 10 ml of a medium was added to the resulting cell mass. […]
In general terms: An ELISA detects its analyte on a solid surface through an enzyme-linked reagent.

Regarding `NC1=N[C@@]2(c3cc(NC(=O)c4cnc(OCF)cn4)ccc3F)COC[C@@H](F)[C@H]2CS1` [Example 21, N-[3-((4aS,5S,8aS)-2-amino-5-fluoro-4,4a,5,6,8,8a-hexahydro-7-oxa-3-thia-1-azanaphthalen-8a-yl)-4-fluorophenyl]-5-fluoromethoxypyrazine-2-carboxamide], the IC50 (as a rule, the concentration needed to halve the response being measured) stood at 10 nM.
